How the values were obtained:
Bile acid receptor = target: T1, Bile acid receptor (Homo sapiens, UniProt Q96RI1); assay: Agonist activity at human recombinant FXR expressed in HEK293 cells coexpressing CMX-GAL4N by luciferase reporter gene assay; assay type: functional, cell-based
T1 sequence (Q96RI1 whole entry): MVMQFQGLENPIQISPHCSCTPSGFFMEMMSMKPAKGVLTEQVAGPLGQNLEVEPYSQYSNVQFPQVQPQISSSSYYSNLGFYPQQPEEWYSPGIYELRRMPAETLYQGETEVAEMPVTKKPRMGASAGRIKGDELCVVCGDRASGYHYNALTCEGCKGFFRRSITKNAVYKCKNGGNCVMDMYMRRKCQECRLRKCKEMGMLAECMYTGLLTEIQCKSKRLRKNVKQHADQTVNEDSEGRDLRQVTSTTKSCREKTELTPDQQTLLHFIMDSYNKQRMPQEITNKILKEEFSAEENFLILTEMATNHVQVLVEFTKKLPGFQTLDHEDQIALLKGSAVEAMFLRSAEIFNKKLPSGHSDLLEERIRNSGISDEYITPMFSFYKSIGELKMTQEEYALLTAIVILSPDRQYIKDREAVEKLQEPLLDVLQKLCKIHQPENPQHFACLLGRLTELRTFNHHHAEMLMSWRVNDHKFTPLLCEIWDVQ

Bile salt export pump [1] = target: T2, Bile salt export pump (Homo sapiens, UniProt O95342, E297G); assay: Enhancement of human BSEP E297G mutant trafficking to cell membrane in MDCK2 cells co-expressing NTCP assessed as accumulation of [3H]taurocholate at 10 uM preincubated for 24 hrs prior incubation with [3H]taurocholate measured after 2 hrs by liquid scintillation counting; details: mdck-ii
Bile salt export pump [2] = target: T2, Bile salt export pump; assay: Enhancement of human BSEP E297G mutant trafficking to cell membrane in MDCK2 cells co-expressing NTCP assessed as accumulation of [3H]taurocholate at 1 uM preincubated for 24 hrs prior incubation with [3H]taurocholate measured after 2 hrs by liquid scintillation counting; details: mdck-ii

T2 sequence (O95342 whole entry E297G): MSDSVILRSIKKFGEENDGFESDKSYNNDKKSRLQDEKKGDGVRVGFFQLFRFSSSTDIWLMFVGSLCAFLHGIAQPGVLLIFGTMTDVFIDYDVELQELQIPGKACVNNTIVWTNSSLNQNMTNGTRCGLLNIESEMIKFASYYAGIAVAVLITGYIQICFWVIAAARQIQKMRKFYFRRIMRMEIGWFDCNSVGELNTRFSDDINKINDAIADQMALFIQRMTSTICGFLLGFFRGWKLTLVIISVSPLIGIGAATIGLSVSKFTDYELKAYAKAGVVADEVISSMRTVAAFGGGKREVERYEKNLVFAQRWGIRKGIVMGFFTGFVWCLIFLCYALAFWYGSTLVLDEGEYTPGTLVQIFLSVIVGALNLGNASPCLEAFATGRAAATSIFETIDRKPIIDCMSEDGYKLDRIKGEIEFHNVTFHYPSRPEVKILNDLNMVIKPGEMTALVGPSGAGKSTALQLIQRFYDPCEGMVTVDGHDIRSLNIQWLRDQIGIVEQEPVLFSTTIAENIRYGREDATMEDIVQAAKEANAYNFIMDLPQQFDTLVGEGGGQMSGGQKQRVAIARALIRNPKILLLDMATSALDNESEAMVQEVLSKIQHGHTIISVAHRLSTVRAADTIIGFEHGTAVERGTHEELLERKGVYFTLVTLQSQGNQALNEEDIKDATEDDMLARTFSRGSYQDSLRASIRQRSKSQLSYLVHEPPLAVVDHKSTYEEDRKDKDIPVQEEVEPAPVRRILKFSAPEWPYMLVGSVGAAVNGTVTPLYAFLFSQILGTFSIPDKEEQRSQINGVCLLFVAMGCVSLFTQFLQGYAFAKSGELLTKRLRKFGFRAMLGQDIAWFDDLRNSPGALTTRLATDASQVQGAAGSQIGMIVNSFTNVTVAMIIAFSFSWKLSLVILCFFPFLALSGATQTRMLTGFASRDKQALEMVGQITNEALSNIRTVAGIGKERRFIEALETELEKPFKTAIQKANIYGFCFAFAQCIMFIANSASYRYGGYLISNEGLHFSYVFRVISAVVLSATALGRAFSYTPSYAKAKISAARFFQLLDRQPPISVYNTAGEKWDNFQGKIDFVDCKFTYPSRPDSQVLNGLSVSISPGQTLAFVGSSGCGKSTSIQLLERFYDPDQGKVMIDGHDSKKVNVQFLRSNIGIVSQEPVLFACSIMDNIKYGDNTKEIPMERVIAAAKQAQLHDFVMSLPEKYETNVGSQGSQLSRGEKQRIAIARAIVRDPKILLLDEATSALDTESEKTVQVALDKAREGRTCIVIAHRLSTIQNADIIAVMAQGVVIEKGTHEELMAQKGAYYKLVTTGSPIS

Row | EC50 (Bile acid receptor) [µM] | SMILES | Activity (Bile salt export pump [1]) [%] | Activity (Bile salt export pump [2]) [%]
1 | > 10 | CC(C)c1onc(-c2c(Cl)cccc2Cl)c1COc1ccc(N(Cc2ccccc2)C(=O)c2cccc(C(=O)O)c2)c(Cl)c1 | 50 | –
2 | – | CC(C)c1onc(-c2c(Cl)cccc2Cl)c1COc1ccc(/C=C/c2cccc(C(=O)O)c2)c(Cl)c1 | 33 | –
3 | 3 | CC(C)c1onc(-c2c(Cl)cccc2Cl)c1COc1ccc(C(=O)N(c2cccc(C(=O)O)c2)c2cccc3ccccc23)c(Cl)c1 | – | –
4 | – | C[C@H](CCC(=O)O)[C@H]1CC[C@H]2[C@@H]3[C@H](O)C[C@@H]4C[C@H](O)CC[C@]4(C)[C@H]3CC[C@]12C [CHENODIOL] | 50 | –
5 | – | CC(C)c1onc(-c2c(Cl)cccc2Cl)c1COc1ccc(NC(=O)c2cccc(C(=O)O)c2)c(Cl)c1 | 75 | –
6 | 0.41 | CC(C)c1onc(-c2c(Cl)cccc2Cl)c1COc1ccc(N(C(=O)c2cccc(C(=O)O)c2)c2cccc3ccccc23)c(Cl)c1 | 59 | –
7 | – | CC(C)c1onc(-c2c(Cl)cccc2Cl)c1COc1ccc(N(C)C(=O)c2cccc(C(=O)O)c2)c(Cl)c1 | 60 | –
8 | 2.6 | CC(C)c1onc(-c2c(Cl)cccc2Cl)c1COc1ccc(C(=O)N(Cc2ccccc2)c2ccc(C(=O)O)cc2)c(Cl)c1 | – | –
9 | – | CCCCN(C(=O)c1cccc(C(=O)O)c1)c1ccc(OCc2c(-c3c(Cl)cccc3Cl)noc2C(C)C)cc1Cl | 42 | 59
10 | – | CC(C)c1onc(-c2c(Cl)cccc2Cl)c1COc1ccc(C(=O)N(Cc2ccccc2)c2cccc(C(=O)O)c2)c(Cl)c1 | 31 | –
11 | 1.1 | CCCCN(C(=O)c1ccc(OCc2c(-c3c(Cl)cccc3Cl)noc2C(C)C)cc1Cl)c1cccc(C(=O)O)c1 | – | –

Row | SMILES | EC50 (Bile acid receptor) [µM] | Activity (Bile salt export pump [1]) [%] | Activity (Bile salt export pump [2]) [%]
12 | C[C@H](CCC(=O)O)[C@H]1CC[C@H]2[C@@H]3CC[C@@H]4C[C@H](O)CC[C@]4(C)[C@H]3C[C@H](O)[C@]12C [DEOXYCHOLIC ACID] | 50 | – | –

Reference: ChEMBL document CHEMBL2029276, “E297G mutated bile salt export pump (BSEP) function enhancers derived from GW4064: structural development study and separation from farnesoid X receptor-agonistic activity” (Bioorg Med Chem Lett, 2012)
